# Calls of active or inactive are those of the source. The calls are words filed in the database; no cut-off is given here.
# How the values were obtained:
# [1] = test system: Acinetobacter baumannii; assay: Potentiation of clarithromycin-induced antibacterial activity against Acinetobacter baumannii AB5075 assessed as clarithromycin MIC at 10 uM incubated for 16 hrs by broth microdilution method (reference value: […] ug/ml); format: functional
# [2] = test system: Acinetobacter baumannii; assay: Potentiation of clarithromycin-induced antibacterial activity against Acinetobacter baumannii AB5075 assessed as clarithromycin MIC at 7.5 uM incubated for 16 hrs by broth microdilution method (reference value: […] ug/ml); format: functional
# [3] = test system: Acinetobacter baumannii; assay: Potentiation of clarithromycin-induced antibacterial activity against Acinetobacter baumannii AB5075 assessed as fold reduction in clarithromycin MIC at 10 uM incubated for 16 hrs in presence of clarithromycin by broth microdilution method; format: functional
# [4] = test system: Acinetobacter baumannii; assay: Potentiation of clarithromycin-induced antibacterial activity against Acinetobacter baumannii AB5075 assessed as fold reduction in clarithromycin MIC at 7.5 uM incubated for 16 hrs in presence of clarithromycin broth microdilution method; format: functional
# [5] = test system: Acinetobacter baumannii; assay: Antibacterial activity against Acinetobacter baumannii AB5075 assessed as reduction in microbial growth incubated for 16 hrs by broth microdilution method; format: functional
# [6] = test system: Acinetobacter baumannii; assay: Potentiation of clarithromycin-induced antibacterial activity against Acinetobacter baumannii AB5075 assessed as clarithromycin MIC at 15 uM incubated for 16 hrs by broth microdilution method (reference value: […] ug/ml); format: functional
# [7] = test system: Acinetobacter baumannii; assay: Antibacterial activity against Acinetobacter baumannii AB5075 assessed as reduction in microbial growth after 2 days by broth microdilution method; format: functional; settings: AB5075, 48 h, time 2 day
# [8] = test system: Acinetobacter baumannii; assay: Antibacterial activity against Acinetobacter baumannii AB5075 assessed as reduction in microbial growth after 6 days by broth microdilution method; format: functional; settings: AB5075, 144 h, time 6 day
# [9] = test system: Acinetobacter baumannii; assay: Antibacterial activity against Acinetobacter baumannii AB5075 assessed as reduction in microbial growth after 9 days by broth microdilution method; format: functional; settings: AB5075, 216 h, time 9 day
# [10] = test system: Acinetobacter baumannii; assay: Potentiation of clarithromycin-induced antibacterial activity against Acinetobacter baumannii AB5075 assessed as clarithromycin MIC at 20 uM incubated for 16 hrs by broth microdilution method (reference value: […] ug/ml); format: functional
# [11] = test system: Acinetobacter baumannii; assay: Potentiation of clarithromycin-induced antibacterial activity against Acinetobacter baumannii AB5075 assessed as clarithromycin MIC at […] incubated for 16 hrs by broth microdilution method (reference value: […] ug/ml); format: functional; settings: dose 30 µM
# [12] = test system: Acinetobacter baumannii; assay: Potentiation of Colistin-induced Acinetobacter baumannii AB5075 assessed as Colistin MIC at 30 uM by broth microdilution method; format: functional, organism-based
# [13] = test system: Acinetobacter baumannii; assay: Potentiation of clarithromycin-induced antibacterial activity against Acinetobacter baumannii AB5075 assessed as fold reduction in clarithromycin MIC at 20 uM incubated for 16 hrs in presence of clarithromycin by broth microdilution method; format: functional
# [14] = test system: Acinetobacter baumannii; assay: Potentiation of clarithromycin-induced antibacterial activity against Acinetobacter baumannii AB5075 assessed as fold reduction in clarithromycin MIC at 30 uM incubated for 16 hrs in presence of clarithromycin by broth microdilution method; format: functional
# [15] = test system: Acinetobacter baumannii; assay: Potentiation of clarithromycin-induced antibacterial activity against Acinetobacter baumannii AB5075 assessed as clarithromycin MIC at 5 uM incubated for 16 hrs by broth microdilution method (reference value: […] ug/ml); format: functional
# [16] = test system: Acinetobacter baumannii; assay: Potentiation of clarithromycin-induced antibacterial activity against Acinetobacter baumannii AB5075 assessed as fold reduction in clarithromycin MIC at 5 uM incubated for 16 hrs in presence of clarithromycin by broth microdilution method; format: functional
# [17] = test system: Acinetobacter baumannii; assay: Potentiation of clarithromycin-induced antibacterial activity against Acinetobacter baumannii AB5075 assessed as clarithromycin MIC at 25 uM incubated for 16 hrs by broth microdilution method (reference value: […] ug/ml); format: functional
# [18] = test system: Acinetobacter baumannii; assay: Antibacterial activity against Acinetobacter baumannii AB5075 assessed as reduction in microbial growth by CLSI based microdilution method; format: functional
# [19] = test system: Acinetobacter baumannii; assay: Potentiation of clarithromycin-induced antibacterial activity against Acinetobacter baumannii AB5075 assessed as clarithromycin MIC at 10 uM by CLSI based microdilution method (reference value: […] ug/ml); format: functional
# [20] = test system: Acinetobacter baumannii; assay: Potentiation of clarithromycin-induced antibacterial activity against Acinetobacter baumannii AB5075 assessed as clarithromycin MIC at 30 uM by CLSI based microdilution method (reference value: […] ug/ml); format: functional
# [21] = test system: Acinetobacter baumannii; assay: Potentiation of clarithromycin-induced antibacterial activity against Acinetobacter baumannii AB5075 assessed as assessed as fold reduction in clarithromycin MIC at 30 uM by CLSI based microdilution method; format: functional
# [22] = test system: Acinetobacter baumannii; assay: Potentiation of clarithromycin-induced antibacterial activity against Acinetobacter baumannii AB5075 assessed as assessed as fold reduction in clarithromycin MIC at 10 uM by CLSI based microdilution method; format: functional
Compound,MIC [1],MIC [5] [µM],MIC [10],fold change (FC) [14],also measured
CC[C@H]1OC(=O)[C@H](C)[C@@H](O[C@H]2C[C@@](C)(OC)[C@@H](O)[C@H](C)O2)[C@H](C)[C@@H](O[C@@H]2O[C@H](C)C[C@H](N(C)C)[C@H]2O)[C@](C)(OC)C[C@@H](C)C(=O)[C@H](C)[C@@H](O)[C@]1(C)O [CLARITHROMYCIN],,,,,MIC [7]: ≥ 128 µg/mL; MIC [8]: 512 µg/mL; MIC [9]: 512 µg/mL
Nc1ncc(-c2ccc(NC(=O)c3ccc(Br)cc3F)cc2)[nH]1,32 µM,≥ 200,16 µM,,Activity [12]: inactive
Nc1nc(-c2ccc(NC(=O)c3cc(F)c(F)c(F)c3)cc2)c[nH]1,32 µM,100,8 µM,,
Nc1ncc(-c2ccc(NC(=O)c3ccc(I)cc3)cc2)[nH]1,,≥ 200,,,
Cl.Nc1nc(-c2ccc(NC(=O)c3cc(C(F)(F)F)cc(C(F)(F)F)c3)cc2)c[nH]1,,50,,,MIC [6]: 8 µg/mL
Cl.Nc1ncc(-c2ccc(NC(=O)c3cc(F)cc(F)c3)cc2)[nH]1,,≥ 200,,8,MIC [11]: 4 µg/mL
Nc1nc(-c2ccc(NC(=O)c3ccc(F)cc3)cc2)c[nH]1,,≥ 200,,,
Cl.Nc1nc(-c2ccc(NC(=O)c3cc(Cl)cc(Cl)c3)cc2Cl)c[nH]1,8 µg/mL,> 200,0.5 µg/mL,64,fold change (FC) [3]: 4; fold change (FC) [13]: 64; MIC [11]: 0.5 µg/mL
Nc1nc(-c2ccc(NC(=O)c3cccc(Cl)c3)cc2)c[nH]1,16 µM,≥ 200,4 µM,,
Nc1nc(-c2ccc(NC(=O)c3ccc(Br)cc3)cc2)c[nH]1,,≥ 200,,,Activity [12]: inactive
Cl.Nc1nc(-c2ccc(NC(=O)c3cc(Br)cc(Br)c3)cc2F)c[nH]1,16 µg/mL,> 200,8 µg/mL,16,fold change (FC) [3]: 2; fold change (FC) [13]: 4; MIC [11]: 2 µg/mL
Nc1ncc(-c2ccc(NC(=O)c3cc(Br)cc(Br)c3)cc2)[nH]1,,,,,MIC [18]: 100 µM; MIC [19]: 2 µg/mL; MIC [20]: 0.25 µg/mL; fold change (FC) [21]: 128; fold change (FC) [22]: 16
Cl.Nc1ncc(-c2ccc(NC(=O)c3ccc(Cl)c(Cl)c3)cc2)[nH]1,4 µM,100,0.5 µM,64,
Nc1nc(-c2ccc(NC(=O)c3ccccc3)cc2)c[nH]1,,≥ 200,,,
Cl.Nc1ncc(-c2ccc(NC(=O)c3cccc(Cl)c3Cl)cc2)[nH]1,,≥ 200,,4,
Nc1nc(-c2ccc(NC(=O)c3ccc(Cl)c(C(F)(F)F)c3)cc2)c[nH]1,2 µM,100,,,
Nc1ncc(-c2ccc(NC(=O)c3cccc(I)c3)cc2)[nH]1,,≥ 200,,,
Nc1nc(-c2ccc(NC(=O)c3c(F)c(F)c(F)c(F)c3F)cc2)c[nH]1,,≥ 200,,,

# Now from value to compound, other results behind:
MIC [1],MIC [5] [µM],MIC [10],Compound,fold change (FC) [14],also measured
2 µg/mL,50,,Cl.Nc1nc(-c2ccc(NC(=O)c3ccc(Cl)c(C(F)(F)F)c3)cc2F)c[nH]1,,MIC [2]: 8 µg/mL; fold change (FC) [3]: 16; fold change (FC) [4]: 4; MIC [6]: 0.25 µg/mL
,,8 µg/mL,Cl.Nc1nc(-c2c(F)cc(NC(=O)c3cc(Cl)cc(Cl)c3)cc2F)c[nH]1,,fold change (FC) [3]: 2; MIC [11]: 4 µg/mL
16 µg/mL,> 200,1 µg/mL,Cc1cc(-c2c[nH]c(N)n2)ccc1NC(=O)c1cc(Cl)cc(Cl)c1.Cl,64,fold change (FC) [3]: 2; fold change (FC) [13]: 32
8 µg/mL,50,,Cl.Nc1nc(-c2ccc(NC(=O)c3ccc(C(F)(F)F)c(Cl)c3)cc2F)c[nH]1,,MIC [2]: 16 µg/mL; fold change (FC) [3]: 4; fold change (FC) [4]: 2; MIC [6]: 0.25 µg/mL
,25,,Cl.Nc1nc(-c2ccc(NC(=O)Nc3cc(Cl)cc(Cl)c3)cc2)c[nH]1,,MIC [15]: 8 µg/mL; MIC [2]: 0.5 µg/mL; fold change (FC) [16]: 4; fold change (FC) [4]: 64
0.25 µM,≥ 200,0.25 µM,Nc1nc(-c2ccc(NC(=O)c3cc(Cl)c(Br)c(Cl)c3)cc2)c[nH]1,,
32 µM,100,16 µM,Nc1nc(-c2ccc(NC(=O)c3c(Cl)cc(Cl)cc3Cl)cc2)c[nH]1,,MIC [17]: 8 µM
,≥ 200,,Nc1nc(-c2ccc(NC(=O)c3cccc(Br)c3)cc2)c[nH]1,,
,≥ 200,,Nc1nc(-c2ccc(NC(=O)c3ccc(C(F)(F)F)cc3)cc2)c[nH]1,,
,≥ 200,,Cc1cc(C)cc(C(=O)Nc2ccc(-c3c[nH]c(N)n3)cc2)c1.Cl,,MIC [11]: 2 µg/mL; Activity [12]: inactive
0.5 µg/mL,> 200,0.25 µg/mL,Cl.Nc1nc(-c2ccc(NC(=O)c3cc(Cl)cc(Cl)c3)cc2F)c[nH]1,128,MIC [15]: 8 µg/mL; MIC [2]: 4 µg/mL; fold change (FC) [3]: 64; fold change (FC) [16]: 4; fold change (FC) [4]: 8; MIC [11]: 0.5 µg/mL
16 µM,≥ 200,4 µM,Nc1nc(-c2ccc(NC(=O)c3ccc(Cl)cc3)cc2)c[nH]1,,
1 µM,50,,Cc1ccc(C(=O)Nc2ccc(-c3c[nH]c(N)n3)cc2)cc1F,,MIC [15]: 16 µM
16 µg/mL,100,4 µg/mL,COc1cc(-c2c[nH]c(N)n2)ccc1NC(=O)c1cc(Cl)cc(Cl)c1.Cl,64,fold change (FC) [3]: 2; fold change (FC) [13]: 8; MIC [11]: 0.5 µg/mL
8 µg/mL,> 200,0.5 µg/mL,Cc1cc(NC(=O)c2cc(Cl)cc(Cl)c2)ccc1-c1c[nH]c(N)n1.Cl,64,fold change (FC) [3]: 4; fold change (FC) [13]: 64; MIC [11]: 0.5 µg/mL
0.25 µg/mL,100,0.0625 µg/mL,Cl.Nc1nc(-c2ccc(NC(=O)Nc3ccc(Cl)c(Cl)c3)cc2)c[nH]1,>=512,MIC [15]: 8 µg/mL; MIC [2]: 2 µg/mL; fold change (FC) [13]: >=512; fold change (FC) [16]: 4; fold change (FC) [4]: 16; MIC [11]: 0.0625 µg/mL; MIC [6]: 0.125 µg/mL
,≥ 200,,Nc1nc(-c2ccc(NC(=O)c3cccc(F)c3)cc2)c[nH]1,,
,25,,Cc1ccc(C(=O)Nc2ccc(-c3c[nH]c(N)n3)cc2)cc1Cl,,MIC [15]: 16 µM
,≥ 200,,Cl.Nc1ncc(-c2ccc(NC(=O)c3ccc(Cl)cc3Cl)cc2)[nH]1,8,
,> 200,,Cl.Nc1nc(-c2ccc(NC(=O)c3cc(Cl)cc(Cl)c3)c(F)c2)c[nH]1,4,MIC [11]: 16 µg/mL
,≥ 200,,Nc1ncc(-c2ccc(NC(=O)c3cc(I)c(I)c(I)c3)cc2)[nH]1,,
,> 200,,Cl.Nc1nc(-c2ccc(NC(=O)c3cc(Cl)cc(Cl)c3)c(Cl)c2)c[nH]1,2,MIC [11]: 8 µg/mL
